Test results from PubChem BioAssay (NCI).
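A five-concentration, 48-hour dose response in 96-well plates underlies each endpoint, interpolated linearly between surrounding concentrations. At the GI50, growth is halved. TGI denotes the concentration required for complete inhibition of growth.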

How the values were obtained:
Assay in all cases: inhibition of tumour cell growth, NCI panel, 48 h
786-0 renal = system: 786-0 renal
A498 renal = system: A498 renal
A549 NSCLC = system: A549 NSCLC
ACHN renal = system: ACHN renal
BT-549 breast = system: BT-549 breast
CAKI-1 renal = system: CAKI-1 renal
CCRF-CEM leukemia = system: CCRF-CEM leukemia
COLO 205 colon = system: COLO 205 colon
DU-145 prostate = system: DU-145 prostate
EKVX NSCLC = system: EKVX NSCLC
HCC-2998 colon = system: HCC-2998 colon
HCT-116 colon = system: HCT-116 colon
HCT-15 colon = system: HCT-15 colon
HL-60(TB) leukemia = system: HL-60(TB) leukemia
HOP-62 NSCLC = system: HOP-62 NSCLC
HOP-92 NSCLC = system: HOP-92 NSCLC
HS 578T breast = system: HS 578T breast
HT29 colon = system: HT29 colon
IGROV1 ovarian = system: IGROV1 ovarian
K-562 leukemia = system: K-562 leukemia
KM12 colon = system: KM12 colon
LOX IMVI melanoma = system: LOX IMVI melanoma
M14 melanoma = system: M14 melanoma
MALME-3M melanoma = system: MALME-3M melanoma
MCF7 breast = system: MCF7 breast
MDA-MB-231 breast = system: MDA-MB-231 breast
MDA-MB-435 = system: MDA-MB-435
MOLT-4 leukemia = system: MOLT-4 leukemia
NCI-H226 lung = system: NCI-H226 lung
NCI-H23 lung = system: NCI-H23 lung
NCI-H460 lung = system: NCI-H460 lung
NCI-H522 lung = system: NCI-H522 lung
NCI/ADR-RES ovarian = system: NCI/ADR-RES ovarian
OVCAR-3 ovarian = system: OVCAR-3 ovarian
OVCAR-4 ovarian = system: OVCAR-4 ovarian
OVCAR-5 ovarian = system: OVCAR-5 ovarian
OVCAR-8 ovarian = system: OVCAR-8 ovarian
PC-3 prostate = system: PC-3 prostate
RPMI-8226 leukemia = system: RPMI-8226 leukemia
RXF 393 renal = system: RXF 393 renal
SF-268 CNS = system: SF-268 CNS
SF-295 CNS = system: SF-295 CNS
SF-539 CNS = system: SF-539 CNS
SK-MEL-2 melanoma = system: SK-MEL-2 melanoma
SK-MEL-28 melanoma = system: SK-MEL-28 melanoma
SK-MEL-5 melanoma = system: SK-MEL-5 melanoma
SK-OV-3 ovarian = system: SK-OV-3 ovarian
SN12C renal = system: SN12C renal
SNB-19 CNS = system: SNB-19 CNS
SNB-75 CNS = system: SNB-75 CNS
SR leukemia = system: SR leukemia
SW-620 colon = system: SW-620 colon
T-47D breast = system: T-47D breast
TK-10 renal = system: TK-10 renal
U251 CNS = system: U251 CNS
UACC-257 melanoma = system: UACC-257 melanoma
UACC-62 melanoma = system: UACC-62 melanoma
UO-31 renal = system: UO-31 renal

SMILES: COc1cc(/C=C/C(=O)c2ccc(Nc3nc(Nc4ccc(F)cc4)nc(Nc4ccc(Cl)cc4)n3)cc2)cc(OC)c1OC
- GI50 (786-0 renal): 6.13 µM
- TGI (786-0 renal): 17.8 µM
- GI50 (A498 renal): 3.23 µM
- TGI (A498 renal): 13.6 µM
- GI50 (A549 NSCLC): 12.1 µM
- TGI (A549 NSCLC): 99 µM
- GI50 (ACHN renal): 5.88 µM
- TGI (ACHN renal): 61.1 µM
- GI50 (BT-549 breast): 8.16 µM
- TGI (BT-549 breast): 59.3 µM
- GI50 (CAKI-1 renal): > 100 µM
- TGI (CAKI-1 renal): > 100 µM
- GI50 (CCRF-CEM leukemia): 1.09 µM
- TGI (CCRF-CEM leukemia): 6.69 µM
- GI50 (COLO 205 colon): 7.1 µM
- TGI (COLO 205 colon): 41.2 µM
- GI50 (DU-145 prostate): 10.6 µM
- TGI (DU-145 prostate): > 65.9 µM
- GI50 (EKVX NSCLC): > 24 µM
- TGI (EKVX NSCLC): > 100 µM
- GI50 (HCC-2998 colon): 0.804 µM
- TGI (HCC-2998 colon): 2.3 µM
- GI50 (HCT-116 colon): 3.13 µM
- TGI (HCT-116 colon): 14.2 µM
- GI50 (HCT-15 colon): 2.02 µM
- TGI (HCT-15 colon): > 29.4 µM
- GI50 (HL-60(TB) leukemia): 0.523 µM
- TGI (HL-60(TB) leukemia): 3.23 µM
- GI50 (HOP-62 NSCLC): 24.6 µM
- TGI (HOP-62 NSCLC): > 73.8 µM
- TGI (HOP-92 NSCLC): 4.75 µM
- GI50 (HS 578T breast): 2.75 µM
- TGI (HS 578T breast): 11.9 µM
- GI50 (HT29 colon): 2.81 µM
- TGI (HT29 colon): 17.5 µM
- GI50 (IGROV1 ovarian): 4.66 µM
- TGI (IGROV1 ovarian): 31.8 µM
- GI50 (K-562 leukemia): 1.74 µM
- TGI (K-562 leukemia): 8.19 µM
- GI50 (KM12 colon): 3.35 µM
- TGI (KM12 colon): 19.9 µM
- GI50 (LOX IMVI melanoma): 1.82 µM
- TGI (LOX IMVI melanoma): 4.84 µM
- GI50 (M14 melanoma): 10.1 µM
- TGI (M14 melanoma): 43.5 µM
- GI50 (MALME-3M melanoma): 5.41 µM
- TGI (MALME-3M melanoma): 13.7 µM
- GI50 (MCF7 breast): 1.87 µM
- TGI (MCF7 breast): 20.3 µM
- GI50 (MDA-MB-231 breast): 5.77 µM
- TGI (MDA-MB-231 breast): > 37.9 µM
- GI50 (MDA-MB-435): 7.6 µM
- TGI (MDA-MB-435): > 26.4 µM
- GI50 (MOLT-4 leukemia): 1.15 µM
- TGI (MOLT-4 leukemia): 3.6 µM
- GI50 (NCI-H226 lung): 3.63 µM
- TGI (NCI-H226 lung): 34.4 µM
- GI50 (NCI-H23 lung): 3.99 µM
- TGI (NCI-H23 lung): 20.7 µM
- GI50 (NCI-H460 lung): 4.3 µM
- TGI (NCI-H460 lung): 28 µM
- GI50 (NCI-H522 lung): 3.8 µM
- TGI (NCI-H522 lung): > 53.9 µM
- GI50 (NCI/ADR-RES ovarian): 7.19 µM
- TGI (NCI/ADR-RES ovarian): > 85.3 µM
- GI50 (OVCAR-3 ovarian): 4.14 µM
- TGI (OVCAR-3 ovarian): 15.9 µM
- GI50 (OVCAR-4 ovarian): 6.75 µM
- TGI (OVCAR-4 ovarian): > 100 µM
- GI50 (OVCAR-5 ovarian): 12.6 µM
- TGI (OVCAR-5 ovarian): 45.5 µM
- GI50 (OVCAR-8 ovarian): 0.94 µM
- TGI (OVCAR-8 ovarian): 11.1 µM
- GI50 (PC-3 prostate): 1.04 µM
- GI50 (RPMI-8226 leukemia): 0.811 µM
- TGI (RPMI-8226 leukemia): 4.8 µM
- GI50 (RXF 393 renal): 1.12 µM
- TGI (RXF 393 renal): 2.9 µM
- GI50 (SF-268 CNS): 9.23 µM
- TGI (SF-268 CNS): 58.1 µM
- GI50 (SF-295 CNS): 12.6 µM
- TGI (SF-295 CNS): > 44.9 µM
- GI50 (SF-539 CNS): 6.54 µM
- TGI (SF-539 CNS): 15.3 µM
- GI50 (SK-MEL-2 melanoma): 5.51 µM
- TGI (SK-MEL-2 melanoma): 27 µM
- GI50 (SK-MEL-28 melanoma): 1.82 µM
- TGI (SK-MEL-28 melanoma): 3.71 µM
- GI50 (SK-MEL-5 melanoma): 4.16 µM
- TGI (SK-MEL-5 melanoma): 19 µM
- GI50 (SK-OV-3 ovarian): 46.8 µM
- TGI (SK-OV-3 ovarian): > 100 µM
- GI50 (SN12C renal): 5.69 µM
- TGI (SN12C renal): 54.4 µM
- GI50 (SNB-19 CNS): 18.9 µM
- TGI (SNB-19 CNS): > 100 µM
- GI50 (SNB-75 CNS): 3.67 µM
- TGI (SNB-75 CNS): 38.7 µM
- GI50 (SR leukemia): 1.03 µM
- TGI (SR leukemia): 3.74 µM
- GI50 (SW-620 colon): 3.78 µM
- TGI (SW-620 colon): 17.2 µM
- GI50 (T-47D breast): 5.6 µM
- TGI (T-47D breast): > 62.2 µM
- GI50 (TK-10 renal): 19.8 µM
- TGI (TK-10 renal): 76.4 µM
- GI50 (U251 CNS): 3.19 µM
- TGI (U251 CNS): > 34.7 µM
- GI50 (UACC-257 melanoma): 6.76 µM
- TGI (UACC-257 melanoma): 22.9 µM
- GI50 (UACC-62 melanoma): 6.66 µM
- TGI (UACC-62 melanoma): 23.7 µM
- GI50 (UO-31 renal): 6.7 µM
- TGI (UO-31 renal): > 61.8 µM
